Consider one substance from article PMC10319809, “Chronic UCN2 treatment desensitizes CRHR2 and improves insulin sensitivity” (Nature Communications, 2023).

Test [1] concerns male mice. In words: Glucose tolerance test (oGTT / IPGTT), blood glucose. The test is classed as in vivo, mouse. How it is done: All metabolic tests were performed using standard protocols on male littermates (aged: 10–14 weeks). For glucose tolerance tests (GTTs), animals were fasted for 8 h with ad libitum access to water. Fasting glucose measurements were taken before […] oral glucose dose. Blood glucose measurements were taken via tail nick using the AlphaTRAK 2 Glucose Monitoring System (Zoetis, Parsippany-Troy Hills, NJ) at 10, 30, 60, and 120 min after dose. Blood was collected for insulin measurement in EDTA tubes (Becton, Dickinson and Company, Franklin Lakes, NJ) and centrifuged to collect plasma (2000 g for 10 min at 4 °C), which was stored at −80 °C until analysis at 10, 30, 60, and 120 min after dose. Insulin levels were measured using an Ultrasensitive Mouse Insulin ELISA (ALPCO, Salem, NH), according to manufacturer’s instructions. For insulin tolerance tests (ITTs), animals were fasted for 8 h and blood glucose was measured before (0 min) and at 30, 60, 90, and 120 min following IP injection of 0.75 IU/kg of insulin (Humulin R, Eli Lilly, Indianapolis, IN). […]

The subject of test [2] is heart, white adipose tissue. The test can be described thus: In vivo glucose uptake, fluoro-deoxyglucose (FDG), heart and subcutaneous white adipose tissue. More on the design: species or system mouse. The note with it: for Glucose Uptake Rate, subcutaneous white adipose tissue (FDG): individual animals (Fig. 2H), 1 mg/kg. How it is done: Mice were fasted 5 h, dosed IP with 1 mg/kg UCN2 or vehicle. 20 min after dosing mice were injected with 2 mg/kg fluoro-deoxyglucose (FDG) +/− 0.75 IU insulin via tail vein. 15 min after the FDG dose animals were anesthetized and tissues and blood were collected and snap frozen. Plasma and tissues were analyzed for FDG, FDG-monophosphate, glucose, and glucose-monophosphate. The quantification of the analytes was performed by liquid chromatography tandem mass spectrometry (LC-MS/MS) using selected reaction monitoring (SRM) on an Applied Biosystems SCIEX (Framingham, MA, USA) 5500 QTrap mass spectrometer operated in negative ionization mode. Chromatography was achieved on a Shimadzu (Kyoto, Japan) HPLC system under reversed phase LC conditions with gradient elution. Calibration standards were prepared in analyte-free matrix, while quality control samples were prepared in pooled tissue homogenate by standard addition. Experimental tissue samples were mechanically homogenized in a methanol solution followed by evaporation under nitrogen and resuspension with injection solvent prior to analysis on the LC-MS/MS system.

Values joined by “and” are separate entries in the source; they are usually repeats but may differ in a detail not shown here. Equal entries are not always repeated. Where no end group is shown, it is not given here.

Take “IVLSLDVPIGLLQILLEQARARAAREQATTNARILARVGHC-NH2 (C-terminus assumed) [UCN2, Urocortin 2]”: the “glucose tolerance after acute UCN2 in UCN2.AAV animals” value in test [1] (UCN2.AAV animals injected acutely with UCN2) was “worsened glucose tolerance”. Besides, the “glucose tolerance in oGTT” value in test [1] (oGTT twenty minutes after 1 mg/kg IP UCN2) is listed as “glucose intolerance”. Further, the “insulin-stimulated glucose uptake in heart, WAT and SKM in vivo” value in test [2] (1 mg/kg IP UCN2, SKM by [3H]2DG) is “decreased insulin-stimulated glucose uptake”. In addition, the “Glucose Uptake Rate, subcutaneous white adipose tissue (FDG)” value is 0.1568 ng/g tissue/min and 0.1229 ng/g tissue/min and 0.1122 ng/g tissue/min and 0.1603 ng/g tissue/min and 0.108 ng/g tissue/min and 0.2201 ng/g tissue/min and 0.1273 ng/g tissue/min and 0.0896 ng/g tissue/min in test [2] (UCN2 1 mg/kg IP +Insulin 0.75 IU); 0.0619 ng/g tissue/min and 0.036 ng/g tissue/min and 0.07045 ng/g tissue/min and 0.06392 ng/g tissue/min and 0.06486 ng/g tissue/min and 0.04044 ng/g tissue/min and 0.02401 ng/g tissue/min and 0.1458 ng/g tissue/min in test [2] (UCN2 1 mg/kg IP +Veh (no insulin)).
